Source: patent publication US10561736B1, “Apoptosis inhibitor formulations for prevention of hearing loss” (Spiral Therapeutics, Inc., priority 2019, dated 2020)
Values after ≈ are worked out from the molar mass of the structure shown. “Also recorded” adds a separate entry of the source. Where two headings read alike, the source gives them in different places.

What was measured:
[1] = cochlear distribution after IT administration (absorption); type: in vivo, rat; conditions: LPT99 formulation in hydrogel, detection limit 2 ng/mL=3.2 nM
[2] = test system: caspase 3; assay: CisPt-induced caspase 3 activation in HEI-OC1 cells; type: cell-based
Protocol: (§1) To identify off-target activities of LPT99, its selectivity against a panel of receptors (44 G-protein-coupled receptors [GPCR] and 4 non-GPCR), 4 ion channels, and 3 transporters were analyzed. The cell line, HEI-OC1 (house ear institute organ of Corti 1), which expresses several characteristic markers of the organ of Corti sensory cells (Kalinec, et al., Audiol. Neurootol. 2003, 8(4), 177-89), was used to evaluate the efficacy of LPT99 in preventing apoptosis due to […]. Cells were pre-incubated with LPT99, followed by […] for 24 hours.

[3] = test system: auditory function (ototoxicity); assay: non-GLP auditory toxicity after intra-tympanic administration; type: in vivo, rat; conditions: for ototoxicity: rat
[4] = non-GLP maximum tolerated dose (MTD) toxicity study, IP; conditions: rat, in vivo, Sprague-Dawley rats
Protocol: (§2) A functional observation battery was conducted with LPT99 administered via IP (intraperitoneal) injection in Sprague-Dawley rats. The study was preceded by a non-GLP maximum tolerated dose (MTD) toxicity study, via the same administration and test system, which determined the MTD of LTP99 to be 1000 mg/kg. LPT99 was suspended in vehicle [0.5% w/v methylcellulose and 0.1% v/v TWEEN®80 in Milli-Q water] and administered intraperitoneally to Sprague-Dawley rats as a single dose at the doses of 100 (low—G2/G2TK), 300 (mid—G3/G3TK), and 750 (high—G4/G4TK) mg/kg body weight. The rats in vehicle control groups (G1/G1TK) received the vehicle alone. The dose volume administered was at an equivolume of 10 mL/kg body weight for all groups.
(§3) A GLP acute systemic toxicity study was conducted with LPT99 administered via IP injection in Sprague-Dawley rats. The acute systemic toxicity study was preceded by a non-GLP maximum tolerated dose (MTD) toxicity study, via the same administration and test system, which determined the MTD of LTP99 to be 1000 mg/kg.

[5] = molecular target: apoptosome complex composed by recombinant Apaf-1, Cytc, deoxyadenosine triphosphate (dATP), and caspase 9 (Homo sapiens, UniProt O14727); assay: inhibition of apoptosome complex formation, recombinant proteins; type: biochemical; conditions: mean ± SD, read-out: apoptosome inhibition (measured as inhibition of caspase 3 activation)
Sequence of apoptosome complex composed by recombinant Apaf-1, Cytc, deoxyadenosine triphosphate (dATP), and caspase 9 (O14727 whole entry, one chain of several): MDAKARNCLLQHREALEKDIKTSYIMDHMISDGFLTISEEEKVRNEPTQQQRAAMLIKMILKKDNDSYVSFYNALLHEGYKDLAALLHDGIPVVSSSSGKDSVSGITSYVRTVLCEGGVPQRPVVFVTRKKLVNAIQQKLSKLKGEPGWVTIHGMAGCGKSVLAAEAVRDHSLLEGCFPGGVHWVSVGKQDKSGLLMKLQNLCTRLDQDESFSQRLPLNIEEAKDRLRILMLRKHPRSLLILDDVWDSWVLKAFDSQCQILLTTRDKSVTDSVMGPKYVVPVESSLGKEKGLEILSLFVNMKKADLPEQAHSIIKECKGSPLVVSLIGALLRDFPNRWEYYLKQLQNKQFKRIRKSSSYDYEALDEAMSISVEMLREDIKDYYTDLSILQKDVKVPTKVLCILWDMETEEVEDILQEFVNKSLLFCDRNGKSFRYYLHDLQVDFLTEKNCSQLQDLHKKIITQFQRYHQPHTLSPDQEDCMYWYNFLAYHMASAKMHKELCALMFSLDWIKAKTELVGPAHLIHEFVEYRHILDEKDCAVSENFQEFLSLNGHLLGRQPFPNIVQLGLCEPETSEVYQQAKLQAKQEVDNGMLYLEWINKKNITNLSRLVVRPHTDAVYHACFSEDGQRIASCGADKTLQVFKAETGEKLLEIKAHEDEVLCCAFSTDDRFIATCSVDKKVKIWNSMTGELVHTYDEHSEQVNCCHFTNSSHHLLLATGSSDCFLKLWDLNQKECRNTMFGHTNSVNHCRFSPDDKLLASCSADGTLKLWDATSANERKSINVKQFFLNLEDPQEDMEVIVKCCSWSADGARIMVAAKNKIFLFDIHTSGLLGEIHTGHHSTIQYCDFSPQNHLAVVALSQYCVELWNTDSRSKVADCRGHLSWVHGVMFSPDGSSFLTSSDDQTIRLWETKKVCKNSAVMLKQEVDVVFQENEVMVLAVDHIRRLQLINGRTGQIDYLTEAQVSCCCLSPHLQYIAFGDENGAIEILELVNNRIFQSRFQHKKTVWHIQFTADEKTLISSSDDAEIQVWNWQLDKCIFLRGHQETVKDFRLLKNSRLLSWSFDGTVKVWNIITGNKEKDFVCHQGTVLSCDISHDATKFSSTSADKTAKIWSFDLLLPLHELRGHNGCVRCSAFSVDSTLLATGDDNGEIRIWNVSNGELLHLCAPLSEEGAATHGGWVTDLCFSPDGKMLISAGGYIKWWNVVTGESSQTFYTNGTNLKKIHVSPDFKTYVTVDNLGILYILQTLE
Protocol: The specificity of LPT99 was tested in vitro on Apaf-1, caspase 3, and caspase 9 (proteins from the apoptotic cascade), and a broad panel of potential pharmacological targets.
LPT99 inhibited the formation of the apoptosome complex composed by recombinant Apaf-1, Cytc, deoxyadenosine triphosphate (dATP), and caspase 9. This activity was measured as inhibition of caspase 3 activation. […] To evaluate the specificity of the inhibition, an assay of caspase 3 and 9 activation was set up with recombinant proteins. The inhibitions of caspase 3 and 9 were 7.6±14.7 and 5.3±3.5, respectively, for LPT99.

[6] = solubility; type: physicochemical
[7] = test system: Chinese hamster ovary (CHO) cell; assay: in vitro CHO cell aberration assay; type: cell-based; conditions: presence or absence of S9 metabolism
[8] = metabolic profile in hepatic fractions; type: in vitro ADME, human, dog, rabbit, rat, and mouse; conditions: phase I biotransformation pathways
Protocol: The metabolic profile and stability of LPT99 was characterized in human, dog, rabbit, rat, and mouse microsomal and S9 fractions, and in human cytosolic fractions. LPT99 was extensively metabolized (>90% metabolized after 1 hour) in microsomal and S9 hepatic fractions in all tested species. Up to nine (9) metabolites were formed through phase I biotransformation pathways. The most abundant metabolites were identified as single hydroxylation, double hydroxylation, and demethylation plus double hydroxylation. […] In the rabbit S9 fraction, the quantity of detected metabolites was less than in the human S9 fraction.

[9] = test system: Sprague-Dawley rats; assay: functional observation battery, IP injection; type: in vivo; conditions: rat
Protocol: as §2
(§4) LPT99 was suspended in vehicle [0.5% w/v methylcellulose and 0.1% v/v TWEEN® 80 in Milli-Q water] and administered intraperitoneally to Sprague-Dawley rats as a single dose at the doses of 100 (low—G2/G2TK), 300 (mid—G3/G3TK), and 750 (high—G4/G4TK) mg/kg body weight. The rats in vehicle control groups (G1/G1TK) received the vehicle alone. The dose volume administered was at an equivolume of 10 mL/kg body weight for all groups.

[10] = test system: Sprague-Dawley rats; assay: GLP acute systemic toxicity study with toxicokinetics, single IP dose; type: in vivo; conditions: rat; for dose proportionality of Cmax and AUClast: IP 100 to 750 mg/kg/day
Protocol: as §3, §4
(§5) The main toxicity groups consist of 15 rats/sex/group in G1 and G4 groups and 10 rats/sex/group in G2 and G3 groups. The toxicokinetic groups consisted of 6 males and 6 female rats each for the prevention groups, whereas the vehicle control group had 3 male and 3 female rats.

[11] = as above; type: in vivo; conditions: Sprague-Dawley, plasma, rat
Protocol: as §3, §4, §5

[12] = test system: noise-induced ABR threshold shift; assay: noise trauma ABR threshold study (FIG. 6); type: in vivo; conditions: TRAUMA+LPT99 group, 10 and 21 days
[13] = test system: HEI-OC1 cells; assay: HEI-OC1 cell viability with CisPt; type: cell-based; conditions: cellular model of CisPt-induced apoptosis
Protocol: as §1
The effect of LPT99 on proliferation of non-apoptotic cells was studied. A549 cells were cultured in the presence of LPT99 for up to 6 days; the cell number was monitored by flow cytometry, and doubling time was calculated.

## COc1ccc2[nH]cc(CCNC(=O)CC3C(=O)N(CCc4ccc(Cl)cc4Cl)CC(=O)N3CCc3cccs3)c2c1 (centres unmarked) [LPT99, 2-(4-(2,4-dichlorophenethyl)-3,6-dioxo-1-(2-(thiophen-2-yl)ethyl)piperazin-2-yl)-N-(2-(5-methoxy-1H-indol-3-yl)ethyl)acetamide]
[1]
  LPT99 in plasma after IT administration: no LPT99 has been found in plasma; also recorded: not detected systemically
[1]; listed as LTP99
  LPT99 in plasma after IT administration: not detectable in plasma
[2]; cellular model of CisPt-induced apoptosis
  caspase 3 activation in the cellular model: reduced caspase-3 activation
[2]; read-out: 50% inhibitory concentration (IC50) for caspase 3, HEI-OC1 cells pre-incubated with LPT99, then CisPt for 24 hours
  IC50: 5.2 ± 1.6 µM
[3]; IT, in cyclodextrin, 100 or 200 μM, Day 3
  ABR thresholds in response to click or pure tones (8 to 40 kHz), latencies and amplitudes: did not produce a statistically significant increase in the thresholds
[3]; IT, 100 and 478 μM, follow-up experiment
  ototoxicity: no LPT99 ototoxicity
[3]; IT, 200, 400, and 797 μM
  ototoxicity: no ototoxicity
[4]
  MTD: 1000 mg/kg
[5]
  inhibition at 10 µM: 78.9%
[6]; 14.7 wt/wt % vehicle vs aqueous
  increase in drug solubility: 332 fold
[6]; aqueous (not further specified), read-out: aqueous solubility
  solubility: 2.4 µM (≈ 1.51 µg/mL)
[6]; aqueous with cosolvent or surfactant or cyclodextrin, 14.7 wt/wt %, read-out: solubility in 14.7 wt/wt % vehicle
  solubility: ≥ 797 µM
[7]
  structural aberrations in cultured mammalian cells: did not induce structural aberrations
[8]
  number of metabolites formed: ≤ 9
[9]; IP 100 mg/kg, Day 1
  neurological parameters: unaffected
[9]; IP 300 and 750 mg/kg, both sexes, day 1, reversible by Day 15
  motor activity scores: lower motor activity scores
[10]; IP 750 mg/kg, first 7 days, both sex
  body weights or body weight gains: not statistically significantly lower
[10]; IP 750 mg/kg, males days 1-7, females days 1-4, vs control
  food consumption: statistically significant reduction
[10]; IP 750 mg/kg, males, Day 2
  epididymides weight: increase in epididymides weight
[10]; IP 750 mg/kg, males, Day 15
  neutrophil count: minimal increase in neutrophil count
[10]; female
  dose proportionality of Cmax and AUClast: approximate dose proportional increase
[10]; male
  dose proportionality of Cmax and AUClast: More than dose proportional increase
[10]; IP 300 and 750 mg/kg, males and females, Day 2
  liver weight: increase in liver weight
[10]; IP, Day 2 and Day 15, parenchyma not affected
  inflammatory response, localisation: restricted to the mesentery and surface of the visceral organs in abdominal cavity
[10]; IP, Days 2 and 15
  coagulation parameters: not affected
  urinalysis parameters: unaffected
[10]; IP, all dose groups, Day 2
  neutrophil count: increased neutrophil count
[10]; IP, all test item injected groups, Day 2
  mediastinal lymph node, microscopic finding: necrosis/inflammation of lymph node
[10]; IP, all tested dose levels
  exposure in females relative to males: 1.5-5.5 fold
[10]; IP, males
  clinical chemistry parameters: no test item related changes
[10]; single IP 100, 300, 750 mg/kg
  general tolerability: generally safe and well tolerated
  mortality: No mortality was observed
[10]; single IP, all tested dose groups
  clinical signs: no clinical signs observed
[11]; IP 100 mg/kg/day, female, read-out: Tmax
  Tmax: 8 h
[11]; IP 100 mg/kg/day, male, read-out: Tmax
  Tmax: 2 h
[11]; both sexes, IP, dose levels other than 100 mg/kg/day, both genders, read-out: time to reach peak plasma concentrations (Tmax)
  Tmax: 24 h
[12]
  noise-induced ABR Threshold shift: back at basal levels
[13]
  cell viability with CisPt: improved cell viability; also recorded: increased cellular viability
